Measurements reported in paper PMC7497641, “Neurotropic activity and safety of methylene-cycloalkylacetate (MCA) derivative 3-(3-allyl-2-methylenecyclohexyl) propanoic acid” (ACS Chemical Neuroscience, 2020).

What was measured:
calcineurin phosphatase = test: PhosphoSens CSox based phosphatase assay; type: biochemical; details: 5 μM HU-MCA-13
Source text: The initial focus was to measure the modulatory activity in vitro of MCA-13 on protein kinases which were reported to be involved in induction of neurite outgrowth.[18],[43] To do this, we took advantage of a powerful method to measure the activity of recombinant protein kinases using a homogeneous and continuous (kinetic) format, where the level of chelation-enhanced fluorescence (CHEF) is directly proportional to the amount of phosphorylated, real-time sensors consisting of sulfonamido-oxine (Sox) chromophore linked to a peptide or protein substrates of selective kinases.[44] […]
Kinase activity was measured continuously using the PhosphoSens®technology (AssayQuant Technologies Inc., Marlborough, MA) according to the manufacturers’ recommendations (http://www.assayquant.com/) . This one-step homogeneous assay use s chelation-enh anced fluorescence via optimized substrate sensors unique for each kinase, containing the unnatural fluorogenic amino-acid Sox. […]
Protein kinase activity was determined in 54 mM HEPES, pH 7.5 1 mM ATP 1.2 mM DTT (none in ASK1) 0.012% Brij-35 1% glycerol 0.2 mg/ml BSA 0.52 mM EGTA (none in assays of CAMK2α, PKCε, PKCι, Calcineurin A/B) 140 µM phosphatidylserine/3.8 µM diacylglycerol (PKCε, PKCι only) 5 ng/µl calmodulin/0.4 mM CaCl2 (CAMK2α, Calcineurin A/B only) 10 mM […]

[1] = target: T1, Opioid Receptor Mu 1 (OPRM1) (Homo sapiens, UniProt P35372); test: cell-based; details: cAMP, read-out: RC50 (the source's name)
T1 construct: host or cells: cAMP Hunter cell lines

[2] = target: T2, Lymphocyte Cell-Specific Protein-Tyrosine Kinase (Src family) (LCK) (Homo sapiens, UniProt P06239); test: SAFETYscan KINOMEscan binding assay; details: Inhibitor
T2 construct: host or cells: E. coli BL21-derived host (T7 phage) or HEK-293
T2 sequence (P06239 whole entry): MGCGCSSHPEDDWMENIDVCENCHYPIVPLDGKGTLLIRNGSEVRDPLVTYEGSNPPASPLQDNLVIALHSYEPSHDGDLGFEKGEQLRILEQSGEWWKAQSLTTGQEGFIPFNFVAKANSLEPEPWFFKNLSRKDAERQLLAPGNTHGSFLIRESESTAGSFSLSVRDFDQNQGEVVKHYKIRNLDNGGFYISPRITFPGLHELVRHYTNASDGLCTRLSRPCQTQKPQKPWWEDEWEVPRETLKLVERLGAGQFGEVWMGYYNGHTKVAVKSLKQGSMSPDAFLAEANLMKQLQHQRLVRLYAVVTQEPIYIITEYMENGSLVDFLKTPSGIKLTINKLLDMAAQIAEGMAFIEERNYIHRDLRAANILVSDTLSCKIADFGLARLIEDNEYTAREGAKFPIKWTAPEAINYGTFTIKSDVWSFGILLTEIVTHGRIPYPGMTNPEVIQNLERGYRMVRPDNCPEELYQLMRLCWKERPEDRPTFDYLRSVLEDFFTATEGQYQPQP

T1 sequence (P35372 whole entry): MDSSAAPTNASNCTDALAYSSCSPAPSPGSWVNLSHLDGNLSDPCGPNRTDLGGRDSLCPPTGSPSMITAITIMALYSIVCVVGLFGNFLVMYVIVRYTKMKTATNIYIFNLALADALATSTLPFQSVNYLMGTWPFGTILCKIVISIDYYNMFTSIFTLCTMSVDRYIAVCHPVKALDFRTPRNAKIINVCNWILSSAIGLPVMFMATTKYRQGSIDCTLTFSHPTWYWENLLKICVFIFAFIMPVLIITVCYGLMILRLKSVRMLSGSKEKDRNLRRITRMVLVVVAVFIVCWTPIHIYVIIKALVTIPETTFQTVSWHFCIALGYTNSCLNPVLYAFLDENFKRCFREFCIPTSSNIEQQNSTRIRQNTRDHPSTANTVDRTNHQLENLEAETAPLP

Structure (SMILES): C=CCC1CCCC(CCC(=O)O)C1=C (centres unmarked) [HU-MCA-13, 3-(3-allyl-2-methylenecyclohexyl)propanoic acid]
- effect on phosphatase activity (calcineurin phosphatase): no effects
- EC50 ([1]; Agonist): > 10 µM
- IC50 ([1]; Antagonist): > 10 µM
- inhibition at 10 µM ([2]; 10 μM, read-out: MCA-13 Max. Responce): 12.8%
- IC50 ([2]; read-out: RC50 (the source's name)): > 10 µM
